In patent publication US10155021B2, “Antimicrobial 4-oxoquinolizines” (Emergent Product Development Gaithersburg Inc., priority 2011, dated 2018):
≈ marks a conversion by molar mass, not a printed value. Where two headings read alike, the source gives them in different places.

Experiments:
B. anthracis = assay: microbe, parasite or virus in culture; format: cell-based; details: Bacillus anthracis, read-out: MIC B. anthracis
B. pseudomallei = assay: microbe, parasite or virus in culture; format: cell-based; details: Burkholderia pseudomallei, read-out: MIC B. pseudomallei
F. tularensis = assay: microbe, parasite or virus in culture; format: cell-based; details: Francisella tularensis, read-out: MIC F. tularensis
B. abortus = assay: microbe, parasite or virus in culture; format: cell-based; details: Brucella abortus, read-out: MIC B. abortus
A. baumannii A387 [1] = assay: Preliminary MBC without and with sub-inhibitory polymyxin B (Example 4); format: cell-based, Acinetobacter baumannii; details: Acinetobacter baumannii, A387, A. baumannii A387, without polymyxin B, 2nd experiment, read-out: MBC without PB
A. baumannii A401 [2] = assay: MIC without and with sub-inhibitory polymyxin B (Example 4); format: cell-based, Acinetobacter baumannii; details: Acinetobacter baumannii, A401, A baumannii A 401, without polymyxin B, read-out: MIC without PB
A. baumannii A329 = assay: as above; format: cell-based, Acinetobacter baumannii; details: Acinetobacter baumannii, A329, read-out: MIC +0.06 μg/ml PB, read with alamar blue, A. baumannii A329; +0.06 μg/ml polymyxin B; 2nd experiment; MIC read with alamar blue
[3] = tested on: Acinetobacter spp. H064200250; assay: MIC determination for Acinetobacter strains (Example 3); format: cell-based, Acinetobacter sp.; details: LEV R, CIP R, MRP R, IMP I
A. baumannii A387 [4] = assay: MIC without and with sub-inhibitory polymyxin B (Example 4); format: cell-based, Acinetobacter baumannii; details: Acinetobacter baumannii, A387, A. baumannii A387; without polymyxin B; 2nd experiment; visual reading; read-out: MIC without PB
[5] = tested on: Acinetobacter sp. (H064200250); assay: Preliminary MBC without and with sub-inhibitory polymyxin B (Example 4); format: cell-based; details: Acinetobacter, without polymyxin B, preliminary MBC, read-out: MBC without PB
Experimental: The plates were incubated for 18-20 hours at 37° C. The MBC was read as the lowest concentration at which colony growth was ca. 90% less than the positive control (i.e. usually where single colonies or no colonies were observed).

[6] = tested on: 11 strains of A. baumannii and one strain of Acinetobacter sp.; assay: Preliminary MBC without and with sub-inhibitory polymyxin B, whole panel (Example 4; also strains not listed separately); format: cell-based; details: Acinetobacter baumannii, NCTC13301, A. baumannii NCTC 13301, without polymyxin B, 2nd experiment, read-out: MBC without PB
A. baumannii A473 [7] = assay: MIC without and with sub-inhibitory polymyxin B (Example 4); format: cell-based, Acinetobacter baumannii; details: Acinetobacter baumannii, A473, A. baumannii A473, without polymyxin B
A. baumannii A489 [8] = assay: MIC determination for Acinetobacter strains (Example 3); format: cell-based; details: LEV R, CIP R, MRP R, IMP R, AMK R, TET R
A. baumannii A472 [9] = assay: Preliminary MBC without and with sub-inhibitory polymyxin B (Example 4); format: cell-based, Acinetobacter baumannii; details: Acinetobacter baumannii, A472, A. baumannii A472, without polymyxin B, read-out: MBC without PB
A. baumannii A473 [10] = assay: MIC determination for Acinetobacter strains (Example 3); format: cell-based; details: LEV R, CIP R, MRP R, IMP R, AMK R, TET R
A. baumannii A489 [11] = assay: MIC without and with sub-inhibitory polymyxin B (Example 4); format: cell-based, Acinetobacter baumannii; details: Acinetobacter baumannii, A489, A. baumannii A489, without polymyxin B
A. baumannii A472 [12] = assay: MIC determination for Acinetobacter strains (Example 3); format: cell-based; details: LEV R, CIP R, MRP I, IMP I, AMK R, TET R
A. baumannii ATCC 19606 = assay: MIC without and with sub-inhibitory polymyxin B (Example 4); format: cell-based, Acinetobacter baumannii; details: Acinetobacter baumannii, ATCC19606, A. baumannii ATCC 19606; without polymyxin B; 2nd experiment; second reading marked *, mark not explained; read-out: MIC without PB, value in parentheses marked *
A. baumannii A489 [13] = assay: Preliminary MBC without and with sub-inhibitory polymyxin B (Example 4); format: cell-based, Acinetobacter baumannii; details: Acinetobacter baumannii, A489, A. baumannii A489, without polymyxin B, read-out: MBC without PB
A. baumannii A472 [14] = assay: MIC without and with sub-inhibitory polymyxin B (Example 4); format: cell-based, Acinetobacter baumannii; details: for MIC: Acinetobacter baumannii, A472, A. baumannii A472, without polymyxin B, read-out: MIC without PB
A. baumannii A 401 = assay: MIC determination for Acinetobacter strains (Example 3); format: cell-based; details: A401, LEV R, CIP R, AMK R, TET R
A. baumannii A390 [15] = assay: as above; format: cell-based; details: LEV R, CIP R, MRP R, IPM I, AMK R, TET I
[16] = tested on: resistant strains of A. baumannii and one strain of Acinetobacter sp.; assay: MIC without and with sub-inhibitory polymyxin B, whole panel / MIC ranges (Example 4; also strains not listed separately); format: cell-based; details: Acinetobacter baumannii
A. baumannii A401 [17] = assay: Preliminary MBC without and with sub-inhibitory polymyxin B (Example 4); format: cell-based, Acinetobacter baumannii; details: Acinetobacter baumannii, A401, A baumannii A 401; without polymyxin B; preliminary MBC; 1st experiment; read-out: MBC without PB
A. baumannii A390 [18] = assay: MIC without and with sub-inhibitory polymyxin B (Example 4); format: cell-based, Acinetobacter baumannii; details: Acinetobacter baumannii, A390, A. baumannii A390, without polymyxin B, read-out: MIC without PB
[19] = tested on: Acinetobacter sp. (H064200250); assay: as above; format: cell-based; details: Acinetobacter, without polymyxin B, read-out: MIC without PB
A. baumannii A473 [20] = assay: Preliminary MBC without and with sub-inhibitory polymyxin B (Example 4); format: cell-based, Acinetobacter baumannii; details: Acinetobacter baumannii, A473, A. baumannii A473, without polymyxin B, read-out: MBC without PB
[21] = Acinetobacter spp. H064200250, 1st experiment
[22] = 1st experiment, read-out: MIC without PB
[23] = 2nd experiment, MIC read with alamar blue, read-out: MIC without PB, read with alamar blue
[24] = 2nd experiment, visual reading, read-out: MIC without PB

Cc1c(-c2cccc(N)c2)ccn2c(=O)c(C(=O)O)cc(C3CC3)c12 [Compound 9, 8-(3-amino-phenyl)-1-cyclopropyl-9-methyl-4-oxo-quinolizine-3-carboxylic acid]
MIC (B. anthracis): 0.06 µg/mL (≈ 0.179 µM)
MIC (B. pseudomallei): 0.5 µg/mL (≈ 1.5 µM)
MIC (F. tularensis): 0.125 µg/mL (≈ 0.374 µM)
MIC (B. abortus): 0.25 µg/mL (≈ 0.748 µM)

C[C@@H](O)[C@H]1C(=O)N2C(C(=O)O)=C(S[C@@H]3CN[C@H](C(=O)N(C)C)C3)[C@H](C)[C@H]12 [Meropenem, reference compound]
MBC (A. baumannii A387 [1]): 8 µg/mL (≈ 20.9 µM)
MIC (A. baumannii A401 [2]; 1st experiment): 32 µg/mL (≈ 83.4 µM)
MIC (A. baumannii A401 [2]; 2nd experiment, visual reading): 16 µg/mL (≈ 41.7 µM)
MIC (A. baumannii A329): 64 µg/mL
MIC [3]: 32 µg/mL (≈ 83.4 µM)
MIC (A. baumannii A387 [4]): 8 µg/mL (≈ 20.9 µM)
MBC ([5]; Acinetobacter spp. H064200250 (OXA51), 2nd experiment): 16 µg/mL (≈ 41.7 µM)
MBC [5, 21]: 16 µg/mL (≈ 41.7 µM)
MBC [6]: 64 µg/mL (≈ 167 µM)
MIC (A. baumannii A473 [7]; [22]): 16 µg/mL (≈ 41.7 µM)
MIC (A. baumannii A473 [7]; [23]): 32 µg/mL (≈ 83.4 µM)
MIC (A. baumannii A473 [7]; [24]): 16 µg/mL (≈ 41.7 µM)
MIC (A. baumannii A489 [8]): 16 µg/mL (≈ 41.7 µM)
MBC (A. baumannii A472 [9]; 1st experiment): 8 µg/mL (≈ 20.9 µM)
MBC (A. baumannii A472 [9]; 2nd experiment): 8 µg/mL (≈ 20.9 µM)
MIC (A. baumannii A473 [10]): 16 µg/mL (≈ 41.7 µM)
MIC (A. baumannii A489 [11]; [22]): 16 µg/mL (≈ 41.7 µM)
MIC (A. baumannii A489 [11]; [23]): 32 µg/mL (≈ 83.4 µM)
MIC (A. baumannii A489 [11]; [24]): 16 µg/mL (≈ 41.7 µM)
MIC (A. baumannii A472 [12]): 8 µg/mL (≈ 20.9 µM)
MIC (A. baumannii ATCC 19606): 64 µg/mL (≈ 167 µM)
MBC (A. baumannii A489 [13]; 1st experiment): 8 µg/mL (≈ 20.9 µM)
MBC (A. baumannii A489 [13]; 2nd experiment): 16 µg/mL (≈ 41.7 µM)
MIC ratio without/with polymyxin B (A. baumannii A472 [14]; A. baumannii A472, ratio MIC without PB to MIC + PB, PB […], 2nd experiment): ≥ 64 µg/mL
MIC (A. baumannii A472 [14]; 1st experiment): 8 µg/mL (≈ 20.9 µM)
MIC (A. baumannii A472 [14]; 2nd experiment, visual reading): 8 µg/mL (≈ 20.9 µM)
MIC (A. baumannii A 401): 32 µg/mL (≈ 83.4 µM)
MIC (A. baumannii A390 [15]): 32 µg/mL (≈ 83.4 µM)
MIC ([16]; NCTC13301, A. baumannii NCTC 13301, without polymyxin B, 1st experiment, read-out: MIC without PB): 32 µg/mL (≈ 83.4 µM)
MIC ([16]; NCTC13301, A. baumannii NCTC 13301, without polymyxin B, 2nd experiment, visual reading, read-out: MIC without PB): 64 µg/mL (≈ 167 µM)
MIC ([16]; read-out: MIC range without PB 01-10-2008 n = 8, without polymyxin B, 1st experiment, 8 strains): 1 to 32 µg/mL (≈ 2.61 to 83.4 µM)
MBC (A. baumannii A401 [17]): 16 µg/mL (≈ 41.7 µM)
MIC (A. baumannii A390 [18]; 1st experiment): 32 µg/mL (≈ 83.4 µM)
MIC (A. baumannii A390 [18]; 2nd experiment, visual reading): 32 µg/mL (≈ 83.4 µM)
MIC ([19]; Acinetobacter spp. H064200250 (OXA51), 2nd experiment, visual reading): 16 µg/mL (≈ 41.7 µM)
MIC [19, 21]: 32 µg/mL (≈ 83.4 µM)
MBC (A. baumannii A473 [20]; 1st experiment): 64 µg/mL (≈ 167 µM)
MBC (A. baumannii A473 [20]; 2nd experiment): 16 µg/mL (≈ 41.7 µM)
